Test results as given in patent US20230233513A1, “TAXIFOLIN FORMULATION COMPRISING THIAMINE” (Evanium Healthcare GmbH, priority 2020, published 2023).

Experiments:
[1] = Screening of water-soluble polymers / alkylammonium cations: recrystallization of supersaturated taxifolin/β-CD complex solution; assay type: physicochemical; conditions: taxifolin:choline/carnitine cations ratio 1:0.85, 96 h
Procedure: In order to examine which water-soluble polymers are particularly suitable for improving the stability and dissolution capacity of flavonoid-cyclodextrin complexes, a screening was carried out. For this purpose, first, a supersaturated taxifolin/β-CD complex solution was prepared by adding an excess of equimolar taxifolin/β-CD complex and subsequent heating to 35° C. and filtering off.

[2] = Stability examination taxifolin: color change of aqueous solutions; assay type: physicochemical; conditions: stored open, protected from light, room temperature
Procedure: In order to investigate the stability of the flavonoid taxifolin and the influence of thiamine and β-CD, experiments were also carried out in this regard. Since taxifolin forms red-brown oligomers upon breakdown, the detection is quite straightforward to carry out. Method: Three aqueous solutions were prepared in beakers containing I) 100 mg taxifolin in 150 ml distilled water II) 100 mg of Taxifolin+13 mg of thiamine HCl in 150 ml distilled water and III) 100 mg taxifolin+13 mg of thiamine HCl+373 mg of β-CD in distilled water. Samples were stored open and protected from light at room temperature and the color of the solution was checked every 24 h.

Time of color change ([2]; aqueous solution) | Color of solution [2] | Compound | Recrystallization after 96 h [1] | Remark (change versus reference solution) [1]
– | – | C[N+](C)(C)C[C@H](O)CC(=O)[O-].O=C(O)C(O)C(O)C(=O)O [L-Carnitine tartrate, L-carnitine tartrate] | Distinct | No change
48 h | Red-brown | O=C1c2c(O)cc(O)cc2O[C@H](c2ccc(O)c(O)c2)[C@H]1O [Taxifolin reference, taxifolin] | – | –
